Columns and labels:
human monocytes = assay: Human monocyte adhesion to plastic (MTT); type: cell-based; conditions: lovastatin 100 µM, 37°C overnight
Description: (§1) Monocytes were isolated from human peripheral blood mononuclear cells (PBMCs), obtained from healthy donors (Blood and Tissue Bank of Aragon; approved by the CEICA, number: C.I.PI11/006) by density gradient centrifugation using Ficoll-Paque (GE healthcare). PBMCs were resuspended at a concentration of 2.5 × 10^6 cells/ml in RPMI medium supplemented with 1% heat-inactivated human AB serum (Sigma). Cells were cultured in a Petri dish for 2 h at 37°C 5% CO2. […]
(§2) Freshly isolated monocytes or differentiated macrophages were washed twice with PBS and incubated with trypsin (PAN Biotech) for 30 min at 37°C 5% CO2. […] Next day, every well was washed twice with PBS, complete RPMI medium was added and the number or adherent remaining cells was quantified by a MTT colorimetric test ([38]). […]
(§3) Figure 6 LFA-1 is involved in human macrophage adhesion. […] (B) Macrophage phenotype was analyzed by flow cytometry testing the expression of HL-DR, CD14, CD54, and CD11a. […] Subsequently, every well was washed twice with PBS to remove non-adherent cells and quantification of cell adhesion was carried out by MTT as described in Section “Experimental Procedures.” Values are presented as mean ± SEM of three independent experiments performed by duplicate. […]

mouse macrophages [1] = assay: Mouse macrophage adhesion to uncoated plastic (MTT); type: cell-based; conditions: lovastatin 100 µM, 37°C overnight
Description: (§4) Mouse macrophages were differentiated from mouse bone marrow as previously described ([37]). Briefly, bone marrow cells isolated from mouse femur were cultured in DMEM 10% FBS, 5% horse serum, and 30% supernatant of L929 cell culture as a source of M-CSF at a density of 10^6/cm^2 for 7–8 days. Macrophage differentiation was analyzed in the same way as human macrophages but using CD11b-APC and CD11c-PE (BD) antibodies.
(§5) Freshly isolated monocytes or differentiated macrophages were washed twice with PBS and incubated with trypsin (PAN Biotech) for 30 min at 37°C 5% CO2. After that, cells were scraped gently from the plate and resuspended at a final concentration of 10^6 cells/ml in complete RPMI medium. Subsequently, 10^5 macrophages and 5 × 10^5 monocytes were added to each well and incubated with several concentrations of human D1D2, D1D2Fc, D1D5Fc, mouse D1D5Fc, control human IgG1 20 µg or lovastatin 100 µM at 37°C 5% CO2 overnight. Next day, every well was washed twice with PBS, complete RPMI medium was added and the number or adherent remaining cells was quantified by a MTT colorimetric test ([38]). In some experiments, plates previously coated with human and mouse D1D5Fc were used. […]
(§6) Figure 7 Human intercellular adhesion molecule (ICAM)-1 blocks LFA-1-mediated mouse macrophage cell adhesion. […] (B) Macrophage phenotype was analyzed by flow cytometry testing the expression CD11b and CD11c. […]

VLA-4 = conditions: cited from earlier work
Source text: (§7) In contrast, cell aggregates were clearly visible in cultures after stimulation (Figure 3A, b). […] Macrophage phenotype was confirmed by testing surface antigens by flow cytometry. Monocyte-derived macrophages expressed higher levels of HLA-DR and CD14 than undifferentiated monocytes ([51]). In addition, expression of CD54 (ICAM-1) was diminished in comparison with freshly isolated monocytes (Figure 6B). […] As shown ...

Mac-1 = conditions: cited from earlier work
Source text: as §7

ICAM-1/LFA-1 interaction = conditions: ref [42], [43]; cited from earlier work
Description: Human and mouse LFA-1-derived peptides (human: CD11a237–261; mouse: CD11a235–259) were purchased from GenScript (Piscataway, USA) without any modification. […] Besides, incubation cells with a mouse antiCD1 ...

[2] = system: gp33-pulsed EL4 cells killed by mouse Tc cells (ICAM-1/LFA-1); assay: CD8+ T cell-mediated cytotoxicity on EL4; type: cell-based; conditions: preincubation 45 min 37°C, effector:target 10:1, 4 h
[3] = system: mouse B cells (ICAM-1/LFA-1 interaction); assay: Homotypic B cell aggregation assay; type: cell-based; conditions: lovastatin 100 µM; splenocytes activated with PHA and ionomycin, overnight 37°C; assigned clumping index 1
Description: To obtain these cells, mice were sacrificed by cervical dislocation, the spleens were removed, and splenocytes were isolated and resuspended in RPMI 10% FBS at a final concentration of 10^6 cells/ml. Cells were treated with 10 µg/ml PHA and 1 µg/ml ionomycin to activate LFA-1 and incubated at 37°C 5% CO2 overnight in flat bottom 96-well plates (10^5 cells) in the presence of peptides from LFA-1 and c-Myc (control) 250 µM, D1D2, D1D2Fc, and human IgG1 10 µg, EGTA 1 mM and lovastatin 100 µM. A qualitative aggregation assay was carried out as described ([36], [41]) with a slight modification. Briefly, positive control stimulated cell samples were arbitrarily assigned a clumping index of 10 and lovastatin samples an index of 1. Test samples were ranked from 1 to 10 based upon degree of clumping relative to stimulated and lovastatin-treated samples. Results were verified by a blind independent rating performed by a second observer.
Fresh mouse B cells were obtained from splenocytes and stimulated with PHA and ionomycin to induce homotypic adhesion. The results were quantified by establishing a clumping index that represents the degree of cell aggregation, which reflects the inhibition efficiency (Figure 3B). Cell aggregation was ranked by a clumping index from 1 to 10 based on the degree of aggregation in comparison with the stimulated cells (positive control, clumping index = 10).
Figure 3 Effect of human (ICAM-1) on the aggregation of mouse spleen cells. (A) Splenocytes isolated from mice were non treated (a) or activated with PHA (b–i) as described in Section “Experimental Procedures” and further incubated overnight with (b) medium; (c) IgG1; (d) c-Myc peptide; (e) EGTA; (f) lovastatin; (g) D1D2; (h) D1D2Fc; (i) mouse LFA-1 peptide CD11a235–259. Images were taken with an optical microscope (original magnification, 10×). Representative images from two independent experiments with similar results are shown. (B) The graph represents the rate of agglutination depending on the inhibitory effect on ICAM-1/LFA-1 interaction. Cells stimulated with PHA and ionomycin, which served as a positive control, were arbitrarily assigned agglutination index 10, which represents a percentage of aggregation between 90 and 100%. Homotypic aggregation was classified from 1 to 10 depending on the degree of aggregation relative to cells stimulated. The result was verified by a second independent observer. Values are presented as mean ± SEM of two separate experiments performed by duplicate. Statistical analysis was performed using two-way analysis of variance with Bonferroni’s posttest comparing with c-Myc peptide control. *p < 0.05; ***p < 0.001.

human macrophages = assay: Human macrophage adhesion to plastic (MTT); type: cell-based; conditions: lovastatin 100 µM, 37°C overnight
Description: as §1, §2, §3

mouse macrophages [4] = assay: Mouse macrophage adhesion to mouse ICAM-1 (D1D5Fc)-coated plates; type: cell-based; conditions: plates coated with 5 µg mouse D1D5Fc; compared with human D1D5Fc; MTT
Description: as §4, §5, §6

[5] = system: LFA-1 in the mouse T cell line EL4; assay: Binding of ICAM-1 chimeras to LFA-1 on EL4 cells by flow cytometry; type: cell-based; conditions: mouse or human D1D5Fc 0.1 and 5 µg, 4°C 45 min; representative experiment
Description: The ability of human D1D2Fc and mouse and human D1D5Fc to recognize LFA-1 on mouse cells was analyzed by flow cytometry in the mouse thymic lymphoma cell line EL4. EL4 cells were incubated with different concentrations of human D1D2Fc, mouse and human D1D5Fc and human IgG1 control at 4°C for 45 min, washed twice with FACS buffer (PBS, 5% FCS, 0.1% NaN3), and then incubated with PE-conjugated goat anti-human IgG (Fcγ fragment specific; Jackson ImmunoResearch). After a washing step with FACS buffer, cells were analyzed by FACS using a FACS Calibur with CellQuest Pro software (BD). As control cells were incubated with an antibody against mouse CD11a (LFA-1) before adding human D1D2Fc.
Figure 2 Analysis of D1D2Fc binding to LFA-1 in EL4 cells by flow cytometry. (A) Different amounts of D1D2Fc (0.1, 1, and 10 µg) or human IgG1 control (10 µg) were incubated with EL4 cells. After washing out non-bound proteins, cells were incubated with PE-conjugated goat anti-human IgG Fcγ Ab and analyzed by flow cytometry. As a control EL4 cells were pretreated with a mouse LFA-1 blocking antibody (anti LFA-1) before incubating with 10 µg of D1D2Fc. Histograms show a representative experiment. […] After washing out non-bound proteins, cells were incubated with PE-conjugated goat anti-human IgG Fcγ Ab and analyzed by flow cytometry. […]

Molecule | inhibition of adhesion of human monocytes (human monocytes) | inhibition of adhesion of mouse macrophages (mouse macrophages [1]) | effect on VLA-4 (VLA-4; ref [42], [43]) | inhibition of VLA-4 (VLA-4; ref [43]) | effect on Mac-1 (Mac-1; ref [42], [43]) | inhibition of Mac-1 (Mac-1; ref [43]) | specific block of ICAM-1/LFA-1 interaction (ICAM-1/LFA-1 interaction) | inhibition of Tc cell-mediated cell death of EL4 ([2]; lovastatin 100 µM) | inhibition of B cell aggregation [3] | inhibition of adhesion of human macrophages (human macrophages) | adhesion of mouse macrophages to coated plate (mouse macrophages [4]) | binding to EL4 cells [5] | inhibition of Tc cell-mediated cell death of EL4 ([2]; ICAM-1 proteins, several (increasing) amounts, annexin-V/7-AAD by FACS, three experiments by duplicate) | inhibition of Tc cell-mediated cell death of EL4 ([2]; ICAM-1 proteins, several (increasing) amounts, annexin-V/7-AAD by FACS, three experiments by duplicate, listed as mouse ICAM-1 (D1D5Fc))
CC[C@H](C)C(=O)O[C@H]1C[C@@H](C)C=C2C=C[C@H](C)[C@H](CC[C@@H]3C[C@@H](O)CC(=O)O3)[C@H]21 [lovastatin, reference compound] | block completely cell adhesion | completely inhibit the adhesion | without affecting | not inhibited | without affecting | not inhibited | specifically block ICAM-1/LFA-1 interaction | inhibited cell death | inhibit completely the aggregation | block completely cell adhesion |  |  |  | 
mouse D1D5Fc: mouse Fc chimera containing the five extracellular domains of ICAM-1, R&D systems (protein, left off: Fc, end not stated, kept, mouse Fc chimera containing the five extracellular domains of ICAM-1, R&D systems) QVSIHPREAFLPQGGSVQVNCSSSCKEDLSLGLETQWLKDELESGPNWKLFELSEIGEDSSPLCFENCGTVQSSASATITVYSFPESVELRPLPAWQQVGKDLTLRCHVDGGAPRTQLSAVLLRGEEILSRQPVGGHPKDPKEITFTVLASRGDHGANFSCRTELDLRPQGLALFSNVSEARSLRTFDLPATIPKLDTPDLLEVGTQQKLFCSLEGLFPASEARIYLELGGQMPTQESTNSSDSVSATALVEVTEEFDRTLPLRCVLELADQILETQRTLTVYNFSAPVLTLSQLEVSEGSQVTVKCEAHSGSKVVLLSGVEPRPPTPQVQFTLNASSEDHKRSFFCSAALEVAGKFLFKNQTLELHVLYGPRLDETDCLGNWTWQEGSQQTLKCQAWGNPSPKMTCRRKADGALLPIGVVKSVKQEMNGTYVCHAFSSHGNVTRNVYLTVLYHSQNN |  |  |  |  |  |  |  |  |  |  | similarly adhered | bound to EL4 cells | similarly prevented cell death | inhibited cell death
